Laboratory results as given in patent US7485669B2, “Blockade of sodium channels by phenol derivatives” (B. Braun Melsungen AG, priority 2000, dated 2009).
Read-outs that look alike come from different tables or passages of the source. Each block holds one compound with its values, some of them ahead of it.

Experiments:
[1] = molecular target: T1, human skeletal muscle sodium channels (Homo sapiens, UniProt P35499); test: Whole-cell voltage-clamp of heterologously expressed human skeletal muscle sodium channels in HEK 293 cells; format: cell-based; details: for time constant of channel inactivation τh: 40 ms steps −100 mV to 0 mV, control 0.43±0.08 ms; for frequency-dependent block: additional fall relative to the first pulse: 100 Hz train, −100 mV to 0 mV
T1 construct: expressed in transfected cells
T1 sequence (P35499 whole entry): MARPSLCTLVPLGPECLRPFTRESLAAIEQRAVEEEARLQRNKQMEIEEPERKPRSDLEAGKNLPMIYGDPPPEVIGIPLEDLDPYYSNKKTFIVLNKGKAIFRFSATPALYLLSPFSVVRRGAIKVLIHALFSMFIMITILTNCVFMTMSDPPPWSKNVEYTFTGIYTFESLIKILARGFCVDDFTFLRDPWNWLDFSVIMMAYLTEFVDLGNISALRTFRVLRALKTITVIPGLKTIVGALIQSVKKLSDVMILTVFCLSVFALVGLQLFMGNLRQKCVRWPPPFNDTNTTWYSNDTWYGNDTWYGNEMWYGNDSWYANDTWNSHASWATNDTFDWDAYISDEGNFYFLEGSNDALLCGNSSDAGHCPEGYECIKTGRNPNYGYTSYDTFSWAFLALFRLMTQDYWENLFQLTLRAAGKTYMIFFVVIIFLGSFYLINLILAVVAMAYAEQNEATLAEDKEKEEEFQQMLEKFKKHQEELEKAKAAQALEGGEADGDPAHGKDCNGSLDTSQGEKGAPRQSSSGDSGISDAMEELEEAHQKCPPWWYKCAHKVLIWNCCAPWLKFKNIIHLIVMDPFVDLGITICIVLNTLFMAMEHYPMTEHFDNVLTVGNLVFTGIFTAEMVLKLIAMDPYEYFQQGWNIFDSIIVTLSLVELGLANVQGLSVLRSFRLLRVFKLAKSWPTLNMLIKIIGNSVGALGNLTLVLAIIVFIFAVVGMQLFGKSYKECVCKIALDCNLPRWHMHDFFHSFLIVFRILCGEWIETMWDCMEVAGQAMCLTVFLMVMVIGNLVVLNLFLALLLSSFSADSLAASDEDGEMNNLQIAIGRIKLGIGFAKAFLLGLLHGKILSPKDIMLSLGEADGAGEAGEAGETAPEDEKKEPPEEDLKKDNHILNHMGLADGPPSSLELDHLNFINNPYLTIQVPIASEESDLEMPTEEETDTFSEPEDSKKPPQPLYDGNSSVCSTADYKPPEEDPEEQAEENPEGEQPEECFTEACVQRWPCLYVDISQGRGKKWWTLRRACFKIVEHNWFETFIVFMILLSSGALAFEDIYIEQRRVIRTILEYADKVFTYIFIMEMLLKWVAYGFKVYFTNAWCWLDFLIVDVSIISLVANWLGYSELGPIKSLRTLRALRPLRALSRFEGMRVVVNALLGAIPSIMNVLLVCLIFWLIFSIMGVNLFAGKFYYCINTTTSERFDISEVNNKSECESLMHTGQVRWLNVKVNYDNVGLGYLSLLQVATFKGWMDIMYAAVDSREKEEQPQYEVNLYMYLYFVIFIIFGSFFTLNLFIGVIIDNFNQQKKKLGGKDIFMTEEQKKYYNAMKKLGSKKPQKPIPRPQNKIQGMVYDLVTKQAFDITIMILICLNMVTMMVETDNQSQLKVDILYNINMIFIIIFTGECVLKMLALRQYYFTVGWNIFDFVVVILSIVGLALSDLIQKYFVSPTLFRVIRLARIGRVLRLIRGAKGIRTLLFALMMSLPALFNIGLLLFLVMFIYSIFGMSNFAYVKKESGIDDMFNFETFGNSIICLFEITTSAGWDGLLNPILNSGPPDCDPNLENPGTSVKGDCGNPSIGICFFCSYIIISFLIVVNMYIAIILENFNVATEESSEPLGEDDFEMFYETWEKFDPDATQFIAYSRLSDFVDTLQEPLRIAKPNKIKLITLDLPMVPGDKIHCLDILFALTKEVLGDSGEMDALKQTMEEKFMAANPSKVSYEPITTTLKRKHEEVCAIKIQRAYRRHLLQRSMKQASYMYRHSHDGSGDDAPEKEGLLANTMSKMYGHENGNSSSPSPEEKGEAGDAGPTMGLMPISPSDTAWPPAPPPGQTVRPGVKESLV
Description: The sodium channel blocking potency effects of different phenol derivatives with methyl and halogen substituents have been studied on heterologously expressed human skeletal muscle sodium channels. The phenol derivatives encompassed by formula (I) are either commercially available or can be synthesized by conventional standard laboratory methods.
Wild type α-subunits of human muscle sodium channels were heterologously expressed in human embryonic kidney (HEK 293) cells, a stable cell line since […] (American Tissue Culture Collection CRL 1573). Transfection was performed using calcium phosphate precipitation (Graham & Van der Eb, Virology, 52 (1973) 456-467). Permanent expression was achieved by selection for resistance to the aminoglycoside antibiotic geneticin G418 (Life Technology, Eggenstein, Germany) (Mitotic et al., J. Physiol., 478 (1994) 395-402). Successful channel expression was verified electrophysiologically. The clone has been used in several investigations (Haeseler et al.,Br. J. Pharmacol., 128 (1999) 1259-67; Haeseler et al., Br. J. Pharmacol. 130 (2000) 1321-1330; Mitrovic et al., ibid.).
3,5-dimethyl-4-chlorophenol (according to the invention) and 3-methylphenol (not according to the invention) were purchased from Sigma Chemicals, Deisenhofen, Germany; 4-chloro-2-methylphenol (not according to the invention) and 4-chlorophenol (not according to the invention) were from FLUKA, Deisenhofen, Germany. 3,5-Dimethyl-4-chlorophenol was prepared as a 1 M stock solution in methanol; 4-chloro-2-methylphenol, 4-chlorophenol, and 3-methylphenol were dissolved directly in the bath solution immediately before the experiments. Concentrations were calculated from the amount injected into the glass vials. Drug-containing solutions were protected from light and were vigorously vortexed for 60 min. The solution was applied via a glass polytetrafluoroethylene perfusion system and a stainless steel superfusion pipette. The bath solution contained (mM) NaCl 140, MgCl2 1.0, KCl 4.0, CaCl2 2.0, Hepes 5.0, dextrose 5.0. Patch electrodes contained (mM) […] 130, MgCl2 2.0, EGTA 5.0, Hepes 10. All solutions were adjusted to 290 mosm/l by the addition of mannitol and to pH 7.4 by the addition of CsOH.
Standard whole-cell voltage-clamp experiments (Hamill et al., Pfuegers Arch., 391 (1981) 85-100) were performed at 20° C. Each experiment consisted of test recordings with the drug present at only one concentration, and of drug-free control recordings before and after the test. Each whole-cell patch was exposed to one test concentration only. At least four experiments were performed at each concentration. The amount of the diluent methanol corresponding to the test concentration of 3,5-dimethyl-4-chlorophenol was added to the control solution. Patched cells were lifted into the visible stream of either bath solution or test solution, applied via a two-channel superfusion pipette close to the cell. To ensure adequate adjustment of the application device, one test experiment in distilled water reducing inward sodium current to zero was performed every 6-10 experiments.
For data acquisition and further analysis we used the EPC9 digitally-controlled amplifier in combination with Pulse and Pulse Fit software (HEKA Electronics, Lambrecht, Germany). The EPC9 provides automatic subtraction of capacitive and leakage currents by means of a prepulse protocol. The data were filtered at 10 kHz and digitized at 20 μs per point. Input resistance of the patch pipettes was at 1.8-2.5 MΩ. Only small cells with capacitances of 9-15 pF were used; residual series resistance (after 50% compensation) was 1.2-2.5 MΩ; experiments with a rise in series resistance were rejected. The time constant of the voltage settling within the membrane (residual series resistance×cell capacitance) was less than 35 μs. […]

[2] = molecular target: heterologously expressed muscle sodium channels (Homo sapiens, UniProt P35499); details: −100 mV; Fan et al. 1996; read-out: IC50 for block of heterologously expressed muscle sodium channels at −100 mV; cited from earlier work
Sequence of heterologously expressed muscle sodium channels (P35499 whole entry): as above

[3] = IC50 for block of inward sodium current at a holding potential of −150 mV, holding potential −150 mV, 10 ms pulse to 0 mV
[4] = IC50 for block of sodium currents on depolarization from -100 mV to 0 mV, holding potential −100 mV, test pulse to 0 mV

time constant of channel inactivation τh ([1]; 50 μM drug): 0.27 ± 0.02 ms
frequency-dependent block: additional fall relative to the first pulse ([1]; 300 μM drug): 17±5%
Kd ([1]; derived from drug-induced shifts in steady-state availability curves, read-out: KD for the fast-inactivated state): 14 µM
IC50 ([1]; holding potential −100 mV, test pulse to 0 mV, read-out: IC50 for block of sodium currents on depolarization from -100 mV to 0 mV): 150 µM
IC50 ([1]; holding potential −150 mV, 10 ms pulse to 0 mV, read-out: IC50 for block of inward sodium current at a holding potential of −150 mV): 162 µM
Structure (SMILES): Cc1cc(O)cc(C)c1Cl [3,5-dimethyl-4-chlorophenol]

Structure (SMILES): Cc1cccc(O)c1 [3-methylphenol]
time constant of channel inactivation τh ([1]; 1000 μM drug): 0.30 ± 0.08 ms
frequency-dependent block: additional fall relative to the first pulse ([1]; 3000 μM drug): 8±2%
IC50 [1, 3]: 2400 µM
IC50 [1, 4]: 2160 µM

Structure (SMILES): Cc1cc(Cl)ccc1O [4-chloro-2-methylphenol]
time constant of channel inactivation τh ([1]; 100 μM drug): 0.27 ± 0.05 ms
frequency-dependent block: additional fall relative to the first pulse ([1]; 500 μM drug): 16±5%
IC50 [1, 3]: 316 µM
IC50 [1, 4]: 268 µM

Structure (SMILES): Oc1ccc(Cl)cc1 [4-chlorophenol]
time constant of channel inactivation τh ([1]; 500 μM drug): 0.23 ± 0.03 ms
frequency-dependent block: additional fall relative to the first pulse ([1]; 1000 μM drug): 13±2%
IC50 [1, 3]: 751 µM
IC50 [1, 4]: 666 µM

Structure (SMILES): CCN(CC)CC(=O)Nc1c(C)cccc1C [lidocaine, 2-diethylamino-2′,6′-dimethylacetanilide]
IC50 [2]: 500 µM
